Earlier results on 1 molecule are cited in US11718578B2, “Ketamine flow synthesis” (Université de Liège, priority 2017, dated 2023).

Structures are written as SMILES.

The series concerns the target glutamatergic N-methyl-D-aspartate (NMDA) receptor. Particulars: non-competitive NMDA receptor antagonist; according to Tyler et al.

For `CN[C@]1(c2ccccc2Cl)CCCCC1=O` [1a, (S)-2-(2-chlorophenyl)-2-(methylamino)-cyclohexanone], the IC50 was 465 nM.
